Among the data in US8299111B2, “Compounds which modulate the CB2 receptor” (Boehringer Ingelheim International GmbH, priority 2006, dated 2012) are agonistic activity values, retold here.

The target of this assay is T1, human CB2R (Homo sapiens, UniProt P34972).
T1 construct: host or cells: CHO cells
T1 sequence (P34972 whole entry): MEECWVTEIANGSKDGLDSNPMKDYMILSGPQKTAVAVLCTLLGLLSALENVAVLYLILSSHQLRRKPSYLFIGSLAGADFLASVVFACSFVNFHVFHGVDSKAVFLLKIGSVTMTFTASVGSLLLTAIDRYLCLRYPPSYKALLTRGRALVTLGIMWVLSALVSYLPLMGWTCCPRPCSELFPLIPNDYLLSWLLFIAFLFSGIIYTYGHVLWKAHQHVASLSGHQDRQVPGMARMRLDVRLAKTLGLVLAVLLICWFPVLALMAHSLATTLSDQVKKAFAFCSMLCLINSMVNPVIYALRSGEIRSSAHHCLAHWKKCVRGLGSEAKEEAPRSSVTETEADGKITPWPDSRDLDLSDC
The assay is described as follows: CB2R mediated modulation of cAMP synthesis. It is filed as cell-based. The note with it: found through the use of the above described assays (binding and cAMP); CHO cells expressing human CB2R, forskolin-stimulated cAMP. Here is the method:
B. CB2R Mediated Modulation of cAMP Synthesis:
CHO cells expressing human CB2R (Euroscreen) were plated at a density of 5000 cells per well in 384 well plates and incubated overnight at 37° C. After removing the media, the cells were treated with test compounds diluted in stimulation buffer containing 1 mM IBMX, 0.25% BSA and 10 uM Forskolin. The assay was incubated for 30 minutes at 37° C. Cells were lysed and the cAMP concentration was measured using DiscoverX -XS cAMP kit, following the manufacturer's protocol. In this setting, agonists will decrease forskolin induced production of cAMP while inverse agonists will further increase forskolin induced production of cAMP. EC50 of agonists were calculated as follows. The maximal amount of cAMP produced by forskolin compared to the level of cAMP inhibited by 1 uM CP55940 is defined as 100%. The EC50 value of each test compound was determined as the concentration at which 50% of the forskolin-stimulated cAMP synthesis was inhibited. Data was analyzed using a four-parameter logistic model. (Model 205 of XLfit 4.0).
In the case of `COc1ccc(S(=O)(=O)C(C)(C)C(=O)Nc2cccc(C(F)(F)F)n2)cc1F` [2-(3-Fluoro-4-methoxy-benzenesulfonyl)-2-methyl-N-(6-trifluoromethyl-pyridin-2-yl)-propionamide], the agonistic activity result was “agonistic activity”.

Take `Cc1ccc(S(=O)(=O)C(C)(C)C(=O)Nc2ccc(C(F)(F)F)cn2)cc1F` [2-(3-Fluoro-4-methyl-benzenesulfonyl)-2-methyl-N-(5-trifluoromethyl-pyridin-2-yl)-propionamide]: the agonistic activity entry is reported as “agonistic activity”.

With `Cc1ccc(S(=O)(=O)C(C)(C)C(=O)Nc2cccc(C(F)(F)F)n2)cc1F` [2-(3-Fluoro-4-methyl-benzenesulfonyl)-2-methyl-N-(6-trifluoromethyl-pyridin-2-yl)-propionamide], the agonistic activity entry is given as “agonistic activity”.

With `CC(C)(C(=O)Nc1ccc(C(F)(F)F)cn1)S(=O)(=O)c1cccc(F)c1` [2-(3-Fluoro-benzenesulfonyl)-2-methyl-N-(5-trifluoromethyl-pyridin-2-yl)-propionamide], the agonistic activity entry is “agonistic activity”.

`CC(C)(C(=O)Nc1ccc(C(F)(F)F)cn1)S(=O)(=O)c1ccc(Br)cc1` [2-(4-Bromo-benzenesulfonyl)-2-methyl-N-(5-trifluoromethyl-pyridin-2-yl)-propionamide]: the agonistic activity entry is “agonistic activity”.

Take `CC(C)(C(=O)Nc1cccc(C(F)(F)F)n1)S(=O)(=O)c1ccc(Br)cc1` [2-(4-Bromo-benzenesulfonyl)-2-methyl-N-(6-trifluoromethyl-pyridin-2-yl)-propionamide]: the agonistic activity result was “agonistic activity”.

In the case of `Cn1nc(C(C)(C)C)cc1NC(=O)C(C)(C)S(=O)(=O)c1ccc(Br)cc1` [2-(4-Bromo-benzenesulfonyl)-N-(5-tert-butyl-2-methyl-2H-pyrazol-3-yl)-2-methyl-propionamide], the agonistic activity result is recorded as “agonistic activity”.

For `CC(C)(C)c1cc(NC(=O)C(C)(C)S(=O)(=O)c2ccc(Br)cc2)no1` [2-(4-Bromo-benzenesulfonyl)-N-(5-tert-butyl-isoxazol-3-yl)-2-methyl-propionamide], the agonistic activity entry is “agonistic activity”.

On to `Cn1nc(-c2ccccc2)cc1NC(=O)C(C)(C)S(=O)(=O)c1ccc(Cl)cc1F` [2-(4-Chloro-2-fluoro-benzenesulfonyl)-2-methyl-N-(2-methyl-5-phenyl-2H-pyrazol-3-yl)-propionamide], for which the agonistic activity entry is “agonistic activity”.

As to `CC(C)(C(=O)Nc1cc(C(F)(F)F)ccn1)S(=O)(=O)c1ccc(Cl)cc1F` [2-(4-Chloro-2-fluoro-benzenesulfonyl)-2-methyl-N-(4-trifluoromethyl-pyridin-2-yl)-propionamide], the agonistic activity entry is on record as “agonistic activity”.

As to `CC(C)(C(=O)Nc1ccc(C(F)(F)F)cn1)S(=O)(=O)c1ccc(Cl)cc1F` [2-(4-Chloro-2-fluoro-benzenesulfonyl)-2-methyl-N-(5-trifluoromethyl-pyridin-2-yl)-propionamide], the agonistic activity entry was “agonistic activity”.

For `CC(C)(C(=O)Nc1cccc(C(F)(F)F)n1)S(=O)(=O)c1ccc(Cl)cc1F` [2-(4-Chloro-2-fluoro-benzenesulfonyl)-2-methyl-N-(6-trifluoromethyl-pyridin-2-yl)-propionamide], the agonistic activity entry is “agonistic activity”.

With `CCc1sc(NC(=O)C(C)(C)S(=O)(=O)c2ccc(Cl)cc2F)nc1-c1ccccc1` [2-(4-Chloro-2-fluoro-benzenesulfonyl)-N-(5-ethyl-4-phenyl-thiazol-2-yl)-2-methyl-propionamide], the agonistic activity result was “agonistic activity”.

As for `Cn1c(NC(=O)C(C)(C)S(=O)(=O)c2ccc(Cl)cc2)nc2ccccc21` [2-(4-Chloro-benzenesulfonyl)-2-methyl-N-(1-methyl-1H-benzoimidazol-2-yl)-propionamide], the agonistic activity result is given as “agonistic activity”.
